Like-named read-outs stand apart in the source and are kept apart here.
How the values were obtained:
[1] = tested on: HepG-2 cells; assay: MTT cytotoxicity assay on HepG-2 cells; assay type: cell-based, human; conditions: Homo sapiens, HepG2; for viability at 1.25 µM: HepG-2, 1.25 µM; for viability at 1.25 µM / viability at 2.5 µM / viability at 5 µM / viability at 10 µM / viability at 20 µM / viability at 40 µM / viability at 80 µM / viability at 160 µM: Table S1; for viability at 2.5 µM: HepG-2, 2.5 µM; for viability at 5 µM: HepG-2, 5 µM; for viability at 10 µM: HepG-2, 10 µM; for viability at 20 µM: HepG-2, 20 µM; for viability at 40 µM: HepG-2, 40 µM; for viability at 80 µM: HepG-2, 80 µM; for viability at 160 µM: HepG-2, 160 µM; for IC50: MTT, 24 h treatment, mean of three experiments ± SEM
Procedure: (§1) Cytotoxic activity of the synthesized compounds was evaluated against HepG-2 and MCF-7 cancer cell lines using the MTT assay. The tested cell lines were obtained from the American Type Culture Collection (ATCC, […], USA) through the Tissue Culture Unit, The Egyptian Organization for Biological Products and Vaccines (Vacsera, Giza, Egypt). Indirubin, chemicals, and solvents were purchased from Sigma-Aldrich (St. Louis, MO, USA). The cells were grown on RPMI-1640 medium supplemented with 10% inactivated fetal calf serum and 50 µg/mL gentamycin. The cells were maintained at 37 °C in a humidified atmosphere with 5% CO2 and were sub-cultured two to three times per week. For antitumor assays, the tumor cell lines were suspended in the medium at concentration 5 × 10^4 cell/well in Corning® 96-well tissue culture plates (Corning, Corning, NY, USA), then incubated for 24 h. The tested molecules were then added to 96-well plates (six replicates) to achieve six concentrations for each compound. Six vehicle controls with media or 0.5% DMSO were run for each 96-well plate as a control. After incubating for 24 h, the numbers of viable cells were determined by the MTT test. Briefly, the media was removed from the 96 well plate and replaced with 100 µL of fresh culture RPMI 1640 medium without phenol red then 10 µL of the 12 mM MTT stock solution (5 mg of MTT in 1 mL of PBS) to each well including the untreated controls. The 96-well plates were then incubated at 37 °C and 5% CO2 for 4 h. An 85 µL aliquot of the media was removed from the wells, and 50 µL of DMSO was added to each well, mixed thoroughly with the pipette, and incubated at 37 °C for 10 min. Then, the optical density was measured at 590 nm with the microplate reader (SunRise, TECAN, Inc., Morrisville, NC, USA) to determine the number of viable cells, and the percentage of viability was calculated as […], where ODt is the mean optical density of wells treated with the tested sample and ODc is the mean optical density of untreated cells. The relation between surviving cells and drug concentration was plotted to obtain the survival curve of each tumor cell line after treatment with the specified compound. […] Each concentration was repeated four times.

[2] = tested on: MCF-7 cells; assay: MTT cytotoxicity assay on MCF-7 cells; assay type: cell-based; conditions: Homo sapiens, MCF7; for viability at 1.25 µM: MCF-7, 1.25 µM; for viability at 2.5 µM: MCF-7, 2.5 µM; for viability at 5 µM: MCF-7, 5 µM; for viability at 10 µM: MCF-7, 10 µM; for viability at 20 µM: MCF-7, 20 µM; for viability at 40 µM: MCF-7, 40 µM; for viability at 80 µM: MCF-7, 80 µM; for viability at 160 µM: MCF-7, 160 µM
Procedure: as §1

[3] = MTT, 24 h treatment, mean of three experiments ± SEM, read-out: IC50 (µM) MCF-7
[4] = Table S2, read-out: IC50 (µM) on MCF-7 cell line

Row | SMILES | viability at 1.25 µM [1] [%] | viability at 2.5 µM [1] [%] | viability at 5 µM [1] [%] | viability at 10 µM [1] [%] | viability at 20 µM [1] [%] | viability at 40 µM [1] [%] | viability at 80 µM [1] [%] | viability at 160 µM [1] [%] | IC50 [1] [µM] | viability at 1.25 µM ([2]; Table S2) [%] | viability at 2.5 µM ([2]; Table S2) [%] | viability at 5 µM ([2]; Table S2) [%] | viability at 10 µM ([2]; Table S2) [%] | viability at 20 µM ([2]; Table S2) [%] | viability at 40 µM ([2]; Table S2) [%] | viability at 80 µM ([2]; Table S2) [%] | viability at 160 µM ([2]; Table S2) [%] | IC50 [2, 3] [µM] | IC50 [2, 4] [µM]
1 | O=C1Nc2ccc([N+](=O)[O-])cc2C1=Nc1ccc(-c2nc3ccccc3c(=O)[nH]2)cc1 [Compound 22, 2-[4-(5-Nitro-2-oxo-1,2-dihydro-indol-3-ylideneamino)-phenyl]-3H-quinazolin-4-one] | 79.2 ± 7.2 | 73.3 ± 6.5 | 63 ± 5.9 | 48.5 ± 4.1 | 38 ± 3.8 | 26.1 ± 2.3 | 8.22 ± 0.5 | 4.17 ± 0.2 | 35.8 ± 2 | 109 ± 8 | 99.6 ± 7.4 | 95.3 ± 5.9 | 79.1 ± 5.1 | 63.6 ± 3.8 | 49.9 ± 3.3 | 23.5 ± 2.5 | 12.9 ± 1.3 | 14.9 ± 0.66 | –
2 | O=C1Nc2ccccc2C1=Nc1ccc2nc[nH]c(=O)c2c1 [Compound 7, 6-(2-Oxo-1,2-dihydro-indol-3-ylideneamino)-3H-quinazolin-4-one] | 83.4 ± 6.9 | 70.9 ± 6 | 61.9 ± 5.1 | 49.3 ± 2.2 | 35.9 ± 2.1 | 26.5 ± 1.9 | 9.4 ± 0.4 | 7.2 ± 0.2 | 10.8 ± 0.92 | 101 ± 7.2 | 93.7 ± 8.2 | 87.6 ± 6.1 | 78.2 ± 5.3 | 66.3 ± 4 | 53.1 ± 2 | 45.2 ± 1.4 | 36.8 ± 1.2 | 21.9 ± 1.83 | –
3 | COc1ccc2c(c1)C(=Nc1ccc(-c3nc4ccccc4c(=O)[nH]3)cc1)C(=O)N2 [Compound 24, 2-[4-(5-Methoxy-2-oxo-1,2-dihydro-indol-3-ylideneamino)-phenyl]-3H-quinazolin-4-one] | 99.4 ± 8.2 | 95.5 ± 7.3 | 88.5 ± 7 | 79.6 ± 6.9 | 62.1 ± 5.7 | 49.5 ± 3.6 | 23.9 ± 2.4 | 10.4 ± 1.1 | 32.7 ± 2.93 | 104 ± 8.4 | 97.9 ± 7.7 | 90.8 ± 7 | 80 ± 6.9 | 61.3 ± 4.7 | 29.6 ± 2.6 | 11.1 ± 1.4 | 5.92 ± 0.5 | 18.5 ± 0.96 | –
4 | O=C1Nc2ccc(Br)cc2C1=Nc1ccc(-c2nc3ccccc3c(=O)[nH]2)cc1 [Compound 21, 2-[4-(5-Bromo-2-oxo-1,2-dihydro-indol-3-ylideneamino)-phenyl]-3H-quinazolin-4-one] | 98.3 ± 7.7 | 82.5 ± 6.8 | 77.8 ± 5.5 | 61.4 ± 4.6 | 47 ± 3.4 | 23 ± 1.5 | 9.33 ± 1.1 | 6.14 ± 0.9 | 23.7 ± 0.74 | 103 ± 7.7 | 99.6 ± 6.8 | 91.6 ± 5.5 | 78.2 ± 4.6 | 66.3 ± 3.4 | 33.2 ± 2.5 | 16 ± 1.1 | 10.3 ± 0.9 | 33.6 ± 2.33 | –
5 | O=C1Nc2ccc(F)cc2/C1=N/c1ccc(-c2nc3ccccc3c(=O)[nH]2)cc1 [Compound 19, 2-[4-(5-Flouro-2-oxo-1,2-dihydro-indol-3-ylideneamino)-phenyl]-3H-quinazolin-4-one] | 68.4 ± 6.6 | 75 ± 5.3 | 72.3 ± 5.9 | 58.4 ± 3.5 | 46.3 ± 2.4 | 26.6 ± 1.7 | 13.6 ± 0.8 | 7.47 ± 0.2 | 28.4 ± 1.26 | 109 ± 6.6 | 99.3 ± 5.3 | 93.9 ± 4.9 | 81.2 ± 3.9 | 59 ± 2.4 | 36.4 ± 1.7 | 16.4 ± 1.8 | 12 ± 1.2 | 40.8 ± 3.24 | –
6 | COc1ccc2c(c1)C(=Nc1ccc3nc[nH]c(=O)c3c1)C(=O)N2 [Compound 13, 6-(5-Methoxy-2-oxo-1,2-dihydro-indol-3-ylideneamino)-3H-quinazolin-4-one] | 88.2 ± 7.4 | 86.5 | 75.9 ± 4.6 | 61.5 ± 3.2 | 40.9 ± 2.7 | 26.6 ± 1.5 | 7.9 ± 0.9 | 3.9 ± 0.3 | 18.9 ± 1.05 | 109 ± 7.3 | 108 ± 7.4 | 99.6 ± 6.5 | 87.6 ± 4.6 | 71.9 ± 3.2 | 67.6 ± 2.7 | 60.8 ± 1.5 | 56.8 ± 0.9 | > 100 | 123 ± 13.2
7 | O=C1Nc2ccc(Br)cc2C1=Nc1ccc2nc[nH]c(=O)c2c1 [Compound 10, 6-(5-Bromo-2-oxo-1,2-dihydro-indol-3-ylideneamino)-3H-quinazolin-4-one] | 91.2 ± 7 | 87.9 ± 8.1 | 83 ± 5.2 | 71.4 ± 4.5 | 58.7 ± 4.3 | 35.8 ± 2.1 | 19.4 ± 1.2 | 14.2 ± 0.9 | 28.1 ± 2.08 | 98.3 ± 7.4 | 99.1 ± 6.9 | 87.2 ± 5.7 | 76.5 ± 4 | 65.2 ± 2.8 | 55.4 ± 2.6 | 41.2 ± 2.8 | 25.4 ± 2.6 | > 100 | 112 ± 11.2

Reference: publication PMC11901902, “Design, Synthesis, and Cytotoxicity Evaluation of Novel Indolin-2-One Based Molecules on Hepatocellular Carcinoma HepG2 Cells as Protein Kinase Inhibitors” (Molecules, 2025)
